In one experiment the target is T1, GRK2 (Homo sapiens, UniProt P25098).
T1 construct: purchased SignalChem A14-10G
T1 sequence (P25098 1-689): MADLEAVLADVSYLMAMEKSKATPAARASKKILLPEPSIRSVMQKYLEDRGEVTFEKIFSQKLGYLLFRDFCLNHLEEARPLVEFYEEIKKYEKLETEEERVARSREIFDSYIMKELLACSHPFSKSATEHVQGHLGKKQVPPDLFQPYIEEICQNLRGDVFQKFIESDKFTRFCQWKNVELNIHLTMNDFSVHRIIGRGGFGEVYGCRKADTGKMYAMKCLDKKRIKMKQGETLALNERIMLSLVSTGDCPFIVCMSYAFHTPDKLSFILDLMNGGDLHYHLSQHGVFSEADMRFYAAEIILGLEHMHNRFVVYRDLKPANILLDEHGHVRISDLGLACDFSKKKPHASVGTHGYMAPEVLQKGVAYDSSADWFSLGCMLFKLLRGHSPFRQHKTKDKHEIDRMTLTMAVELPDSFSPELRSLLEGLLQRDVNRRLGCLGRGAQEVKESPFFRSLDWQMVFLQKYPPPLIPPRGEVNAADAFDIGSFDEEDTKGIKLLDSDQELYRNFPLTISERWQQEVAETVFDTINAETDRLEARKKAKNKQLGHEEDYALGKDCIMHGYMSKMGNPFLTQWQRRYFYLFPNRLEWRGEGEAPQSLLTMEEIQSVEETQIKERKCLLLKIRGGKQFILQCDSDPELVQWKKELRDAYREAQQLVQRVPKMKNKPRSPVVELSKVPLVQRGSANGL
Kind of experiment: ADPGlo GRK2 Inhibition Assay (Example 8). It is filed as biochemical. The conditions noted are these: ADPGlo GRK2 enzyme assay; read-out: A: Enzymatic GRK2: IC50 (nM) (Example 8). The method in brief: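 GRK2 (15 nM 2× enzyme solution) was preincubated 15 min with compound, then reacted 180 min at room temperature with 2× mix of 20 μM ATP plus GRKtide in HEPES pH 7.5, MgCl2, Tween-20, DTT. ADP was detected by ADP-Glo luminescence. Percent inhibition was normalised to enzyme and no-enzyme controls, with dose-response curves from threefold dilutions starting at 100 μM.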
For orientation: ADP-Glo first removes unused ATP, then detects ADP through luciferase.

Experiment [1] concerns PAXF1657 control empty vector cell line. Kind of experiment: 7-day proliferation assay, PAXF1657 control empty vector cell line (Example 9). It is filed as cell-based. The note with it: 168 h; Cell Line: PAXF1657 empty vector (EV) cell line; 7-day; read-out: C: 7-day proliferation assay: IC50 GeoMean. The method in brief:
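Cells plated at 500 per well and attached overnight. Next, 10-point inhibitor series added (30 μM-0.0002 μM, 0.3% DMSO) and a day-0 viability plate read. Then, after 3 days, medium with fresh compound. Finally, viability after 4 more days via CellTiter-Glo.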

This note sets out measurements from US20230009608A1, “GRK2 INHIBITORS AND USES THEREOF” (Cygnal Therapeutics, Inc., priority 2020, published 2023).

SMILES strings stand for the structures.

As for `Cn1c(CNc2cccc(C(=O)NCc3ccc(C(F)F)nc3)c2)nnc1-c1ccncn1`, the IC50 at GRK2 was 44.6 nM; in experiment [1], more than 4160 nM.

Take `CC1Oc2ccccc2C1NC(=O)c1cccc(NCc2nnc(-c3ccncn3)n2C)c1` (stereo not shown): the IC50 at GRK2 was 7.43 nM; in experiment [1], 1790 nM.

In the case of `COc1cccc(C)c1CNC(=O)c1cccc(NCc2nnc(-c3ccncn3)n2C)c1`, the figures for the IC50 (at GRK2; in experiment [1]) were 8.2 nM and 246 nM, respectively.

Regarding `COc1ccc(CNC(=O)c2cccc(NCc3nnc(-c4ccncn4)n3C)c2)cc1F`, the IC50 at GRK2 was 30.1 nM; in experiment [1] it was 6650 nM.

On to `Cn1c(CNc2cccc(C(=O)NC3COc4ccccc4C3)c2)nnc1-c1ccncn1` (stereo not shown), for which the IC50 on GRK2 is 68.4 nM; in experiment [1], more than 12600 nM.

As for `Cc1ccc2c(c1)C(NC(=O)c1cccc(NCc3nnc(-c4ccncn4)n3C)c1)CO2` (stereo not shown), the IC50 at GRK2 worked out at 18.8 nM; in experiment [1] it was 332 nM.

As for `Cn1c(CNc2cccc(C(=O)NCC3COc4ccccc43)c2)nnc1-c1ccncn1` (stereo not shown), the IC50 is 54.7 nM at GRK2 and more than 5210 nM in experiment [1].

For the molecule `Cn1c(CNc2cccc(C(=O)NC(CCO)c3ccccc3)c2)nnc1-c1ccncn1` (stereo not shown), the IC50 at GRK2 worked out at 26.4 nM; in experiment [1], 1090 nM.

Turning to `Cc1ccc(C(C)NC(=O)c2cccc(NCc3nnc(-c4ccncn4)n3C)c2)nc1` (stereo not shown), the IC50 on GRK2 was 74 nM; in experiment [1] it was more than 5020 nM.

`Cc1cncc(C(C)NC(=O)c2cccc(NCc3nnc(-c4ccncn4)n3C)c2)c1` (stereo not shown): the IC50 amounted to 16.2 nM at GRK2 and 784 nM in experiment [1].

Consider `CC(C)C(NC(=O)c1cccc(NCc2nnc(-c3ccncn3)n2C)c1)c1ccccn1` (stereo not shown), for which the IC50 is 52.8 nM on GRK2 and 1900 nM in experiment [1].

On to `Cn1ccnc1C(NC(=O)c1cccc(NCc2nnc(-c3ccncn3)n2C)c1)C1CC1` (stereo not shown), for which the IC50 on GRK2 came to 52.9 nM; in experiment [1], 3750 nM.

As for `COc1ccc(C(C)NC(=O)c2cccc(NCc3nnc(-c4ccncn4)n3C)c2)cn1` (stereo not shown), the IC50 on GRK2 was 22.6 nM; in experiment [1], 1710 nM.

With `Cn1c(CNc2cccc(C(=O)NC(c3ccccn3)C3CC3)c2)nnc1-c1ccncn1` (stereo not shown), the IC50 at GRK2 amounted to 68.9 nM; in experiment [1], 2630 nM.

As to `Cn1c(CNc2cccc(C(=O)NCc3ccccc3N3CCNCC3)c2)nnc1-c1ccncn1`, the results for the IC50 (on GRK2; in experiment [1]) were 65.8 nM and 7890 nM, respectively.

Consider `Cn1c(CNc2cccc(C(=O)NC3CCc4c(O)cccc43)c2)nnc1-c1ccncn1` (stereo not shown), for which the IC50 at GRK2 was 47.2 nM; in experiment [1], 8840 nM.

On to `CN(C)S(=O)(=O)c1cccc(F)c1CNC(=O)c1cccc(NCc2nnc(-c3ccncn3)n2C)c1`, for which the IC50 came out at 5.78 nM at GRK2 and 263 nM in experiment [1].

Regarding `Cn1c(CNc2cccc(C(=O)N[C@@H](C#N)c3cc(F)ccc3F)c2)nnc1-c1ccncn1`, the IC50 at GRK2 stood at 15.7 nM; in experiment [1] it was 244 nM.

`Cn1c(CNc2cccc(C(=O)N[C@H](C#N)c3cc(F)ccc3F)c2)nnc1-c1ccncn1`: the IC50 turned out to be 17.7 nM on GRK2 and 808 nM in experiment [1].

Turning to `Cc1ccccc1[C@H](C#N)NC(=O)c1cccc(NCc2nnc(-c3ccncn3)n2C)c1`, the IC50 turned out to be 4.63 nM at GRK2 and 30.4 nM in experiment [1].

Regarding `Cc1ccccc1[C@@H](C#N)NC(=O)c1cccc(NCc2nnc(-c3ccncn3)n2C)c1`, the results for the IC50 (on GRK2; in experiment [1]) were 4.97 nM and 35.5 nM, respectively.

In the case of `Cn1c(CNc2cccc(C(=O)N[C@H](C#N)c3cccnc3)c2)nnc1-c1ccncn1`, the IC50 at GRK2 came out at 20.3 nM; in experiment [1], 3430 nM.

On to `CCCCCOc1ccc2c(c1)[C@@H](NC(=O)c1cccc(NCc3nnc(-c4ccncn4)n3C)c1)CCO2`, for which the IC50 is 12.6 nM on GRK2 and 2130 nM in experiment [1].

On to `CCCCCOc1ccc2c(c1)[C@@H](NC(=O)c1cccc(NCc3nnc(-c4ccncn4)n3C)c1)CO2`, for which the IC50 at GRK2 worked out at 8.3 nM; in experiment [1] it was 236 nM.

As to `CCCn1c(CNc2cccc(C(=O)N[C@@H](C)c3cccc(OC)c3)c2)nnc1-c1ccncn1`, the IC50 at GRK2 is 14.1 nM; in experiment [1], more than 30000 nM.

Consider `CCCn1c(CNc2cccc(C(=O)N[C@H](C)c3cccc(OC)c3)c2)nnc1-c1ccncn1`, for which the IC50 was 40.1 nM at GRK2 and more than 219 nM in experiment [1].

As for `COc1cccc([C@H](C)NC(=O)c2cccc(NCc3nnc4n3CCOc3cnccc3-4)c2)c1`, the IC50 at GRK2 is 6.52 nM; in experiment [1], 10100 nM.

As for `COc1cccc([C@@H](C)NC(=O)c2cccc(NCc3nnc4n3CCOc3cnccc3-4)c2)c1`, the IC50 at GRK2 is 15.9 nM; in experiment [1] it was more than 3650 nM.

Regarding `COc1cccc([C@H](C)NC(=O)c2cccc(NCc3nnc(-c4ccncn4)n3CCO)c2)c1`, the IC50 is 2.41 nM on GRK2 and 30.7 nM in experiment [1].

As for `COc1cccc([C@@H](C)NC(=O)c2cccc(NCc3nnc(-c4ccncn4)n3CCO)c2)c1`, the IC50 turned out to be 4.91 nM at GRK2 and 1230 nM in experiment [1].

In the case of `COc1cccc([C@H](C)NC(=O)c2cccc(NCc3nnc(-c4ccncc4)n3CCO)c2)c1`, the figures for the IC50 (on GRK2; in experiment [1]) were 2.99 nM and more than 30000 nM, respectively.

Regarding `COc1cccc([C@@H](C)NC(=O)c2cccc(NCc3nnc(-c4ccncc4)n3CCO)c2)c1`, the IC50 was 99.4 nM on GRK2 and more than 30000 nM in experiment [1].

As to `C[C@H](NC(=O)c1cccc(NCc2nnc(-c3ccncc3)n2CCO)c1)c1ncccc1Cl`, the figures for the IC50 (at GRK2; in experiment [1]) were 28.3 nM and 80.9 nM, respectively.

As for `COc1cccc([C@H](C)NC(=O)c2cccc(NCc3nnc(-c4ccncc4F)n3C)c2)c1`, the IC50 was 11.6 nM on GRK2 and more than 30000 nM in experiment [1].

In the case of `COc1cccc([C@@H](C)NC(=O)c2cccc(NCc3nnc(-c4ccncc4F)n3C)c2)c1`, the IC50 is 181 nM on GRK2 and more than 30000 nM in experiment [1].

For the molecule `C[C@H](NC(=O)c1cccc(NCc2nnc(-c3ccncc3F)n2C)c1)c1ncccc1Cl`, the IC50 was 52.8 nM on GRK2 and 1030 nM in experiment [1].

`C[C@@H](NC(=O)c1cccc(NCc2nnc(-c3ccncc3F)n2C)c1)c1ncccc1Cl`: the figures for the IC50 (at GRK2; in experiment [1]) were 54.7 nM and 135 nM, respectively.

For the molecule `O=C(NCc1cnc2ccccn12)c1cccc(NCc2nnc(-c3ccncc3)n2CCO)c1`, the IC50 on GRK2 is 5.77 nM; in experiment [1] it was more than 30000 nM.

As for `Cc1cccc2ncc(CNC(=O)c3cccc(NCc4nnc(-c5ccncc5)n4CCO)c3)n12`, the IC50 is 5.86 nM at GRK2 and more than 30000 nM in experiment [1].

Take `CCc1cnccc1CNC(=O)c1cccc(NCc2nnc(-c3ccncc3)n2CCO)c1`: the IC50 at GRK2 is 14.3 nM; in experiment [1] it was more than 30000 nM.

In the case of `Cn1c(CNc2cc(C(=O)N[C@H]3COCc4ccccc43)ccn2)nnc1-c1ccncn1`, the IC50 turned out to be 71.1 nM at GRK2 and 11000 nM in experiment [1].

As to `Cn1c(CNc2cc(C(=O)N[C@H]3COc4cc(F)ccc43)ccn2)nnc1-c1ccncn1`, the IC50 on GRK2 turned out to be 118 nM; in experiment [1] it was 1930 nM.

With `Cc1ccc(C#N)cc1CNC(=O)c1ccnc(NCc2nnc(-c3ccncn3)n2C)c1`, the values for the IC50 (on GRK2; in experiment [1]) were 7.07 nM and 1410 nM, respectively.

As for `COc1ncc(Br)cc1CNC(=O)c1ccnc(NCc2nnc(-c3ccncn3)n2C)c1`, the IC50 at GRK2 is 28.1 nM; in experiment [1] it was more than 30000 nM.

Regarding `COc1cccc([C@H](C)NC(=O)c2ccnc(NCc3nnc(-c4ccncn4)n3C)c2)c1`, the IC50 worked out at 125 nM on GRK2 and 8000 nM in experiment [1].

With `COc1cccc([C@@H](C)NC(=O)c2ccnc(NCc3nnc(-c4ccncn4)n3C)c2)c1`, the figures for the IC50 (at GRK2; in experiment [1]) were 9.89 nM and 468 nM, respectively.

Take `Cc1cccc2ncc(CNC(=O)c3cccc(NCc4nnc(-c5ccncc5)[nH]4)c3)n12`: the IC50 was 8.9 nM on GRK2 and more than 10200 nM in experiment [1].

`Cc1cccnc1CNC(=O)c1cccc(NCc2nnc(-c3ccncc3)[nH]2)c1`: the IC50 on GRK2 is 12.2 nM; in experiment [1], more than 30000 nM.

For the molecule `[2H]C([2H])(Nc1cccc(C(=O)N[C@@H]2COc3ccccc32)c1)c1nnc(-c2ccncn2)n1CCO`, the IC50 on GRK2 was found to be 3.76 nM; in experiment [1] it was 96 nM.

As for `Cc1cccc2ncc(CNC(=O)c3cccc(NCc4nnc(-c5ccncc5F)n4C)c3)n12`, the IC50 at GRK2 was 3.91 nM; in experiment [1], more than 1360 nM.

`Cn1c(CNc2cccc(C(=O)NCc3cnc4ccccn34)c2)nnc1-c1ccncc1F`: the IC50 on GRK2 is 39 nM; in experiment [1], more than 30000 nM.

Turning to `Cn1c(CNc2cccc(C(=O)N[C@H](CCO)c3ccccc3)c2)nnc1-c1ccncc1F`, the IC50 at GRK2 is 18 nM; in experiment [1], more than 30000 nM.

Regarding `Cn1c(CNc2cccc(C(=O)N[C@@H](CCO)c3ccccc3)c2)nnc1-c1ccncc1F`, the IC50 is 28.9 nM at GRK2 and more than 1440 nM in experiment [1].
